Assay results from EP0351418B1, “VIRAL VECTOR SYSTEM FOR THE INTRODUCTION OF FOREIGN DNA […] INTO GA[…]” (SYNERGEN, INC., priority 1987, dated 1988).

System: HVT
Assay: Growth and plaque formation of HVT in CEF in the presence of AraT
Assay type: cell-based, herpesvirus of turkeys (HVT)
Text: In HSV-infected cells, ¹²⁵IdC is incorporated into DNA only after it has been phosphorylated by the viral TK as described by Summers and Summers, J. Virol. 24: 314-318 (1977), specifically incorporated herein by reference. Moreover, growth of HVT in CEF is inhibited by the drug AraT, whereas uninfected CEF appears to be unaffected. AraT (1-beta-D-arabinofuranosyl-thymine obtained from Calbiochem) is lethal to cells only once it is incorporated into the DNA where it acts as a chain-terminator. Again by analogy to HSV, AraT-resistance is likely to be due to mutations in the thymidine kinase gene.
AraT-resistant variants occur spontaneously in populations of FC126, and are isolated by growing cell-free virus as described by Calnek et al., Avian Dis. 16:52-56 (1972), specifically incorporated herein by reference, in CEF in the presence of 100 ug/ml AraT. Specifically, 150 mm tissue culture dishes are seeded with 2 X 10⁷ cells of secondary CEF. Two hours later the medium is removed, and 2 X 10⁴ pfu of cell-free HVT are adsorbed for 30 minutes. After adsorption, 30 ml of medium containing 100 ug/ml of AraT is added. Cells are fluid-changed every two days, always with AraT, and monolayers are screened for plaques 4-5 days post-infection at 40-fold magnfication using an inverted microscope. One AraT-resistant variant ATR° was found in 2 X 10⁵ pfu screened initially. Subsequent experiments have yielded AraT resistant HVT at least that frequency. ATR° remains stable for at least nine passages in the absence of AraT.
In addition, wild-type HVT has a growth advantage over the AraT-resistant variants. These differences between the wild-type HVT and HVT that are AraT-resistant, form the basis for a marker-rescue assay that allows for the identification of the region of DNA, and thus the gene which confers resistance to AraT. DNA from the AraT resistant HVT (10 ug of total infected-cell DNA) is co-transfected with individual DNA clones (200 ng of plasmid DNA or 1 ug of phage DNA) representing the genome of HVT. […]

Cc1cn([C@@H]2O[C@H](CO)[C@@H](O)[C@@H]2O)c(=O)[nH]c1=O [AraT, 1-beta-D-arabinofuranosyl-thymine]
effect on uninfected CEF (AraT, uninfected CEF): unaffected | growth of HVT in CEF (in the presence of AraT): inhibited | plaque-forming ability of wild-type HVT (in the presence of AraT): completely inhibits
